Where “and” joins values, the source holds several entries; their conditions need not be identical. Equal entries are not always repeated.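 Where inhibition never reached the appropriate level, the endpoint shown equals the highest concentration tested. Otherwise, values were interpolated linearly from a five-concentration, 48-hour dose response in 96-well plates. GI50 = concentration required for 50% inhibition of growth. TGI denotes the concentration required for complete inhibition of growth.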
Key:
Assay in all cases: growth of human tumour cells (NCI), 48 h
A549 NSCLC = tested on: A549 NSCLC
CAKI-1 renal = tested on: CAKI-1 renal
COLO 205 colon = tested on: COLO 205 colon
HCT-15 colon = tested on: HCT-15 colon
HOP-92 NSCLC = tested on: HOP-92 NSCLC
HT29 colon = tested on: HT29 colon
RPMI-8226 leukemia = tested on: RPMI-8226 leukemia
SF-295 CNS = tested on: SF-295 CNS
SF-539 CNS = tested on: SF-539 CNS
SK-OV-3 ovarian = tested on: SK-OV-3 ovarian

Compound | TGI (A549 NSCLC) [µM] | TGI (CAKI-1 renal) | TGI (COLO 205 colon) | TGI (HCT-15 colon) | TGI (HOP-92 NSCLC) | TGI (HT29 colon) | TGI (RPMI-8226 leukemia) | TGI (SF-295 CNS) | TGI (SF-539 CNS) | TGI (SK-OV-3 ovarian) | GI50 (A549 NSCLC) [µM] | GI50 (CAKI-1 renal) [µM] | GI50 (COLO 205 colon) [µM] | GI50 (HCT-15 colon) [µM] | GI50 (HT29 colon) [µM] | GI50 (RPMI-8226 leukemia) [µM] | GI50 (SF-295 CNS) [µM] | GI50 (SF-539 CNS) [µM] | GI50 (SK-OV-3 ovarian) [µM] | GI50 (HOP-92 NSCLC) [µM]
COc1cc(-c2[nH]ncc2CCCC(=O)Nc2ccccc2[N+](=O)[O-])ccc1O | > 100 | > 100 µM | > 100 µM | > 100 µM | > 100 µM | > 100 µM | > 100 µM | > 100 µM | > 100 µM | > 100 µM | – | – | – | – | – | – | – | – | – | –
O=[N+]([O-])c1ccc([I+]c2ccccc2)cc1 | – | 15 µM and 1.58 µM | 13.5 µM and 3.82 µM | 18.3 µM and 23.4 µM | 23.5 µM and 25.1 µM | 8.33 µM and 5.08 µM | 47.2 µM and 54.2 µM | 10.1 µM and 3.24 µM | 14.3 µM and 3.47 µM | 3.6 µM and 3.24 µM | 1.93 | 0.289 | 1.37 | 8.9 | 2.08 | 4.64 | 1.64 | 1.77 | 1.73 | –
COc1ccccc1NS(=O)(=O)c1cc(C(C)(C)C)ccc1OCCOc1ccc(C(C)(C)C)cc1S(=O)(=O)Nc1ccccc1OC | > 100 | > 100 µM | > 100 µM | > 100 µM | > 100 µM | > 100 µM | > 100 µM | > 100 µM | > 100 µM | > 100 µM | – | – | – | – | – | – | – | – | – | –
Nc1ncn([C@@H]2C=C(CO)C(O)C2O)c(=O)n1 (stereo not given in full) | > 100 | > 100 µM | > 100 µM | > 100 µM | > 100 µM | > 100 µM | > 100 µM | > 100 µM | > 100 µM | > 100 µM | – | – | – | – | – | – | – | – | – | –
CCOc1ccc(NC(=O)/C(=C/c2ccccc2)C(C)=O)cc1 | 60.8 | 25.3 µM | 33.1 µM | 32.4 µM | 28 µM | 33.3 µM | 10.6 µM | 29.4 µM | 23.3 µM | 40.7 µM | – | – | – | – | – | – | – | – | – | –
C/C(=N\NC(=S)Nc1ccccc1)c1ccccn1 | 2.9 | 8.74 µM | 1.48 µM | 13.2 µM | 0.607 µM | 2.54 µM | 39.3 µM | 10.7 µM | 7.24 µM | 2.22 µM | 0.263 | 0.185 | 0.0119 | 0.0338 | 0.0203 | 0.0296 | 0.109 | 0.581 | 0.51 | < 0.0162
O=S(=O)(Nc1ccc2ccc3cccc4ccc1c2c34)c1ccccc1 | > 100 | > 100 µM | > 100 µM | > 100 µM | 98.3 µM | > 100 µM | 32.5 µM | > 100 µM | > 100 µM | > 100 µM | – | – | – | – | – | – | – | – | – | –
CCN(CC)c1ccc(/C=C/C2=[N+](C)c3ccccc3C2(C)C)cc1 | > 100 | 12.6 µM | 0.392 µM | > 49.4 µM | > 35.2 µM | > 40.5 µM | > 61.6 µM | 22.2 µM | 13.9 µM | 2.79 µM | 0.518 | 0.852 | 0.161 | 3.34 | 0.148 | 0.0557 | 0.374 | 0.776 | 0.275 | 0.766
COC(=O)CC(CC(=O)C(=O)OC)C(=O)OC (stereo not given) | > 100 | > 100 µM | > 100 µM | > 100 µM | > 100 µM | > 100 µM | > 100 µM | > 100 µM | > 100 µM | > 100 µM | – | – | – | – | – | – | – | – | – | –
O=c1[nH]cnc2c1nnn2C1C=C(CO)C(O)C1O (stereo not given) | > 100 | > 100 µM | > 100 µM | > 100 µM | > 100 µM | > 100 µM | > 100 µM | > 100 µM | > 100 µM | > 100 µM | – | – | – | – | – | – | – | – | – | –
O=C(O)Cc1ccccc1 | > 2000 | > 1000 µM | > 2000 µM | > 1000 µM and 1710 µM | > 1000 µM and 1250 µM | > 2000 µM | 1420 µM | > 2000 µM | > 2000 µM | > 2000 µM | > 1000 | > 1000 | > 1000 | > 1000 | – | – | – | > 1000 | > 1000 | > 1000
O=C(/C=C/c1cccnc1)/C=C/c1cccnc1 | 6.23 | 26.6 µM | 2.77 µM | 1.98 µM | 5.89 µM | 3.13 µM | 0.252 µM | 13.1 µM | 3.62 µM | 6.78 µM | 2.32 | 4.28 | 1.35 | 0.523 | 1.3 | 0.0732 | 3.73 | 1.75 | 2.74 | 2.33
COc1cc2c(cc1OCCCN1CCN(CCCOc3cc4c(cc3OC)C(=O)C3CCC[C@H]3C=N4)CC1)N=C[C@@H]1CCCC1C2=O (stereo not given in full) | > 100 | > 79.8 µM | > 75.4 µM | > 100 µM | > 61.4 µM | > 68.8 µM | 3.81 µM | 79.8 µM | 16.4 µM | > 100 µM | 35.8 | 26.5 | 9.29 | 53.9 | 23.3 | 0.24 | 9.4 | 0.614 | 63.5 | 0.597
COC(=O)C1(C)CCc2c(ccc3ccccc23)C1=O (stereo not given) | > 100 | 41.6 µM | 42.2 µM | > 100 µM | > 100 µM | > 100 µM | 60.6 µM | > 100 µM | > 100 µM | > 100 µM | – | – | – | – | – | – | – | – | – | –
Cn1cc(-c2csc(-c3cn(C)c4ncccc34)n2)c2ccccc21 | 23.8 | 32.5 µM | 1.05 µM | > 100 µM | 14.1 µM | 4.16 µM | 25.3 µM | 12.6 µM | 0.579 µM | 15.7 µM | 0.634 | 0.373 | 0.229 | 0.23 | 0.276 | 0.396 | 0.274 | 0.158 | 0.544 | 0.346
CC1OC(OC2C(OC3CCC4(C)C(CCC5(C)C4CC=C4C6CC(C)(C)CCC6(CO)C(O)CC45C)C3(C)C)OC(C(=O)O)C(OC3OC(COC4OC(CO)C(O)C(O)C4O)C(O)C(O)C3O)C2O)C(O)C(O)C1O (stereo not given) | 28.1 | 22.1 µM | 4.39 µM | 18.8 µM | 15.3 µM | 25.5 µM | 23.5 µM | 20.2 µM | 20.5 µM | 18 µM | 12.2 | 10.6 | 1.75 | 8.27 | 11.9 | 7.79 | 8.13 | 8.48 | 6.08 | 3.56

Source: PubChem BioAssay (NCI)
